One test concerns the target full-length human BTK (Homo sapiens (Human), UniProt Q06187). Description: BTK IC50 Enzyme Assay (microfluidic off-chip mobility shift kinase assay).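 Also: Read-out separates phosphorylated peptide product from substrate by their charge-to-mass difference, with IC50 fitted from log inhibitor concentration against percent enzyme activity.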 Format: biochemical. Particulars: Btk Enzymatic IC50 Assay, 90 min at 27 C.
In a further test the target is Btk (Homo sapiens (Human), UniProt Q06187). The test can be described thus: Btk PBMC IC50 Cell Assay (anti-IgM-induced CD69 expression on B cells).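 Also: freshly isolated human PBMCs, IC50 from concentration-response of the share of CD19+ cells expressing CD69 after anti-IgM BCR stimulation.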 Format: cell-based. The following applies: anti-IgM-induced CD69 expression on CD19 positive cells in human PBMCs.
Sequence of Btk (Q06187 whole entry): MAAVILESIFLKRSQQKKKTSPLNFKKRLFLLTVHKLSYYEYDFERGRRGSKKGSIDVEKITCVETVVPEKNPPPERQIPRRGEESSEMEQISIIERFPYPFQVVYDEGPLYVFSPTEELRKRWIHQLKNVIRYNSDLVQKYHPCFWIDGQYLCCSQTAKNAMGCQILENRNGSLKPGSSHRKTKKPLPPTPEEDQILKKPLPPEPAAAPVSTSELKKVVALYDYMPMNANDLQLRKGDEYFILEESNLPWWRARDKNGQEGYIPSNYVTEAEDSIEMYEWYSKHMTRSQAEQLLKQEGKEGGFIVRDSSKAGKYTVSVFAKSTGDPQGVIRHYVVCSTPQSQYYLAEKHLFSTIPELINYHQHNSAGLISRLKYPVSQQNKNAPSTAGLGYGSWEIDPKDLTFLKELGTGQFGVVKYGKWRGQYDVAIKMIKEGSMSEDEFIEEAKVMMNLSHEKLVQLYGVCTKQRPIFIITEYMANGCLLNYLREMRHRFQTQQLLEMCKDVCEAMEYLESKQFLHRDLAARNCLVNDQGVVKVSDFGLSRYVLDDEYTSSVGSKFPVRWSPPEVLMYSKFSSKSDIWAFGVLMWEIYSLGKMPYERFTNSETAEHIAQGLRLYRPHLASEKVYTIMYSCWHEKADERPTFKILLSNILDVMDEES

Sequence of full-length human BTK (Q06187 whole entry): as above

Broadly, the IC50 is the concentration at which inhibition is half-maximal. For the compound `Cc1nn(C)c(C)c1-c1nc2c(-c3ccc4c(c3)CCCC[C@@H]4NC(=O)c3noc(C4(C)CC4)n3)ccnc2[nH]1` [Compound 13, 5-(1-Methyl-cyclopropyl)-[1,2,4]oxadiazole-3-carboxylic acid {(S)-2-[2-(1,3,5-trimethyl-1H-pyrazol-4-yl)-3H-imidazo[4,5-b]pyridin-7-yl]-6,7,8,9-tetrahydro-5H-benzocyclohepten-5-yl}-amide], the values for the IC50 on full-length human BTK and against Btk were 1 to 10 nM and 10 to 100 nM, respectively.

Take `Cc1nn(C)c(C)c1-c1nc2c(-c3ccc4c(c3)OCCCC4NC(=O)c3noc(C(C)(C)C)n3)ccnc2[nH]1` (stereo not shown) [Compound 14, 5-tert-Butyl-[1,2,4]oxadiazole-3-carboxylic acid {8-[2-(1,3,5-trimethyl-1H-pyrazol-4-yl)-3H-imidazo[4,5-b]pyridin-7-yl]-2,3,4,5-tetrahydro-benzo[b]oxepin-5-yl}-amide]: the figures for the IC50 at full-length human BTK and at Btk were below 1 nM and 10 to 100 nM, respectively.

With `Cc1nn(C)c(C)c1-c1nc2c(-c3ccc4c(c3)OCCC[C@H]4NC(=O)c3noc(C(C)(C)C)n3)ccnc2[nH]1` [Compound 15, 5-tert-Butyl-[1,2,4]oxadiazole-3-carboxylic acid {(R)-8-[2-(1,3,5-trimethyl-1H-pyrazol-4-yl)-3H-imidazo[4,5-b]pyridin-7-yl]-2,3,4,5-tetrahydro-benzo[b]oxepin-5-yl}-amide], the IC50 at full-length human BTK is 1 to 10 nM; on Btk, above 100 nM.

On to `Cc1nn(C)c(C)c1-c1nc2c(-c3ccc4c(c3)OCCC[C@@H]4NC(=O)c3noc(C(C)(C)C)n3)ccnc2[nH]1` [Compound 16, 5-tert-Butyl-[1,2,4]oxadiazole-3-carboxylic acid {(S)-8-[2-(1,3,5-trimethyl-1H-pyrazol-4-yl)-3H-imidazo[4,5-b]pyridin-7-yl]-2,3,4,5-tetrahydro-benzo[b]oxepin-5-yl}-amide], for which the figures for the IC50 at full-length human BTK and against Btk were below 1 nM and 1 to 10 nM, respectively.

`Cc1nn(C)c(C)c1-c1nc2c(-c3ccc4c(c3)OCCCC4NC(=O)c3nnc(C(C)(C)C)o3)ccnc2[nH]1` (stereo not shown) [Compound 17, 5-tert-Butyl-[1,3,4]oxadiazole-2-carboxylic acid {8-[2-(1,3,5-trimethyl-1H-pyrazol-4-yl)-3H-imidazo[4,5-b]pyridin-7-yl]-2,3,4,5-tetrahydro-benzo[b]oxepin-5-yl}-amide]: the IC50 lay within 1 to 10 nM on full-length human BTK and 10 to 100 nM on Btk.

As for `Cc1nn(C)c(C)c1-c1nc2c(-c3ccc4c(c3)OCCC[C@H]4NC(=O)c3nnc(C(C)(C)C)o3)ccnc2[nH]1` [Compound 18, 5-tert-Butyl-[1,3,4]oxadiazole-2-carboxylic acid {(R)-8-[2-(1,3,5-trimethyl-1H-pyrazol-4-yl)-3H-imidazo[4,5-b]pyridin-7-yl]-2,3,4,5-tetrahydro-benzo[b]oxepin-5-yl}-amide], the IC50 at full-length human BTK and against Btk was above 100 nM each time.

`Cc1nn(C)c(C)c1-c1nc2c(-c3ccc4c(c3)OCCC[C@@H]4NC(=O)c3nnc(C(C)(C)C)o3)ccnc2[nH]1` [Compound 19, 5-tert-Butyl-[1,3,4]oxadiazole-2-carboxylic acid {(S)-8-[2-(1,3,5-trimethyl-1H-pyrazol-4-yl)-3H-imidazo[4,5-b]pyridin-7-yl]-2,3,4,5-tetrahydro-benzo[b]oxepin-5-yl}-amide]: the concentration for half-maximal inhibition (IC50) at full-length human BTK is below 1 nM; against Btk it was 1 to 10 nM.

Consider `Cc1c(-c2nc3c(-c4ccc5c(c4)CCCCC5NC(=O)c4noc(C(C)(C)C)n4)ccnc3[nH]2)cnn1C(C)C` (stereo not shown) [Compound 20, 5-tert-Butyl-[1,2,4]oxadiazole-3-carboxylic acid {2-[2-(1-isopropyl-5-methyl-1H-pyrazol-4-yl)-3H-imidazo[4,5-b]pyridin-7-yl]-6,7,8,9-tetrahydro-5H-benzocyclohepten-5-yl}-amide], for which the results for the IC50 on full-length human BTK and against Btk were below 1 nM and 1 to 10 nM, respectively.

As for `Cc1c(-c2nc3c(-c4ccc5c(c4)CCCC[C@H]5NC(=O)c4noc(C(C)(C)C)n4)ccnc3[nH]2)cnn1C(C)C` [Compound 21, 5-tert-Butyl-[1,2,4]oxadiazole-3-carboxylic acid {(R)-2-[2-(1-isopropyl-5-methyl-1H-pyrazol-4-yl)-3H-imidazo[4,5-b]pyridin-7-yl]-6,7,8,9-tetrahydro-5H-benzocyclohepten-5-yl}-amide], the IC50 on full-length human BTK was below 1 nM; on Btk, 1 to 10 nM.

As for `Cc1c(-c2nc3c(-c4ccc5c(c4)CCCC[C@@H]5NC(=O)c4noc(C(C)(C)C)n4)ccnc3[nH]2)cnn1C(C)C` [Compound 22, 5-tert-Butyl-[1,2,4]oxadiazole-3-carboxylic acid {(S)-2-[2-(1-isopropyl-5-methyl-1H-pyrazol-4-yl)-3H-imidazo[4,5-b]pyridin-7-yl]-6,7,8,9-tetrahydro-5H-benzocyclohepten-5-yl}-amide], the IC50 fell in the range of 1 to 10 nM on full-length human BTK and 10 to 100 nM against Btk.

`Cc1c(-c2nc3c(-c4ccc5c(c4)CCCCC5NC(=O)c4noc(C5(C)CC5)n4)ccnc3[nH]2)cnn1C(C)C` (stereo not shown) [Compound 23, 5-(1-Methyl-cyclopropyl)-[1,2,4]oxadiazole-3-carboxylic acid {2-[2-(1-isopropyl-5-methyl-1H-pyrazol-4-yl)-3H-imidazo[4,5-b]pyridin-7-yl]-6,7,8,9-tetrahydro-5H-benzocyclohepten-5-yl}-amide]: the IC50 is below 1 nM at full-length human BTK and 1 to 10 nM on Btk.

Consider `Cc1c(-c2nc3c(-c4ccc5c(c4)CCCC[C@@H]5NC(=O)c4noc(C5(C)CC5)n4)ccnc3[nH]2)cnn1C(C)C` [Compound 25, 5-(1-Methyl-cyclopropyl)-[1,2,4]oxadiazole-3-carboxylic acid {(S)-2-[2-(1-isopropyl-5-methyl-1H-pyrazol-4-yl)-3H-imidazo[4,5-b]pyridin-7-yl]-6,7,8,9-tetrahydro-5H-benzocyclohepten-5-yl}-amide], for which the 50% inhibitory concentration (IC50) at full-length human BTK was 1 to 10 nM; against Btk, 10 to 100 nM.

Regarding `Cc1c(-c2nc3c(-c4ccc5c(c4)CCCC[C@H]5NC(=O)c4nc(C5(C)CC5)no4)ccnc3[nH]2)cnn1C(C)C` [Compound 27, 3-(1-Methyl-cyclopropyl)-[1,2,4]oxadiazole-5-carboxylic acid {(R)-2-[2-(1-isopropyl-5-methyl-1H-pyrazol-4-yl)-3H-imidazo[4,5-b]pyridin-7-yl]-6,7,8,9-tetrahydro-5H-benzocyclohepten-5-yl}-amide], the IC50 at full-length human BTK was below 1 nM; at Btk, 1 to 10 nM.

As for `Cc1c(-c2nc3c(-c4ccc5c(c4)CCCC[C@@H]5NC(=O)c4nc(C5(C)CC5)no4)ccnc3[nH]2)cnn1C(C)C` [Compound 28, 3-(1-Methyl-cyclopropyl)-[1,2,4]oxadiazole-5-carboxylic acid {(S)-2-[2-(1-isopropyl-5-methyl-1H-pyrazol-4-yl)-3H-imidazo[4,5-b]pyridin-7-yl]-6,7,8,9-tetrahydro-5H-benzocyclohepten-5-yl}-amide], the IC50 on full-length human BTK and on Btk was above 100 nM in each case.

For the compound `Cc1nn(C(C)C)c(C)c1-c1nc2c(-c3ccc4c(c3)CCCCC4NC(=O)c3noc(C(C)(C)C)n3)ccnc2[nH]1` (stereo not shown) [Compound 29, 5-tert-Butyl-[1,2,4]oxadiazole-3-carboxylic acid {2-[2-(1-isopropyl-3,5-dimethyl-1H-pyrazol-4-yl)-3H-imidazo[4,5-b]pyridin-7-yl]-6,7,8,9-tetrahydro-5H-benzocyclohepten-5-yl}-amide], the IC50 at full-length human BTK is below 1 nM; on Btk, 1 to 10 nM.

`Cc1nn(C(C)C)c(C)c1-c1nc2c(-c3ccc4c(c3)CCCC[C@H]4NC(=O)c3noc(C(C)(C)C)n3)ccnc2[nH]1` [Compound 30, 5-tert-Butyl-[1,2,4]oxadiazole-3-carboxylic acid {(R)-2-[2-(1-isopropyl-3,5-dimethyl-1H-pyrazol-4-yl)-3H-imidazo[4,5-b]pyridin-7-yl]-6,7,8,9-tetrahydro-5H-benzocyclohepten-5-yl}-amide]: the IC50 on full-length human BTK was below 1 nM; on Btk, 1 to 10 nM.

In the case of `Cc1nn(C(C)C)c(C)c1-c1nc2c(-c3ccc4c(c3)CCCC[C@@H]4NC(=O)c3noc(C(C)(C)C)n3)ccnc2[nH]1` [Compound 31, 5-tert-Butyl-[1,2,4]oxadiazole-3-carboxylic acid {(S)-2-[2-(1-isopropyl-3,5-dimethyl-1H-pyrazol-4-yl)-3H-imidazo[4,5-b]pyridin-7-yl]-6,7,8,9-tetrahydro-5H-benzocyclohepten-5-yl}-amide], the IC50 at full-length human BTK was 1 to 10 nM; against Btk, 10 to 100 nM.

For `Cc1nn(C(C)C)c(C)c1-c1nc2c(-c3ccc4c(c3)CCCCC4NC(=O)c3noc(C4(C)CC4)n3)ccnc2[nH]1` (stereo not shown) [Compound 32, 5-(1-Methyl-cyclopropyl)-[1,2,4]oxadiazole-3-carboxylic acid {2-[2-(1-isopropyl-3,5-dimethyl-1H-pyrazol-4-yl)-3H-imidazo[4,5-b]pyridin-7-yl]-6,7,8,9-tetrahydro-5H-benzocyclohepten-5-yl}-amide], the values for the IC50 on full-length human BTK and against Btk were below 1 nM and 1 to 10 nM, respectively.

Regarding `Cc1nn(C(C)C)c(C)c1-c1nc2c(-c3ccc4c(c3)CCCC[C@@H]4NC(=O)c3noc(C4(C)CC4)n3)ccnc2[nH]1` [Compound 34, 5-(1-Methyl-cyclopropyl)-[1,2,4]oxadiazole-3-carboxylic acid {(S)-2-[2-(1-isopropyl-3,5-dimethyl-1H-pyrazol-4-yl)-3H-imidazo[4,5-b]pyridin-7-yl]-6,7,8,9-tetrahydro-5H-benzocyclohepten-5-yl}-amide], the IC50 at full-length human BTK is 1 to 10 nM; on Btk it was above 100 nM.

Consider `Cc1nn(C(C)C)c(C)c1-c1nc2c(-c3ccc4c(c3)CCCCC4NC(=O)c3nc(C4(C)CC4)no3)ccnc2[nH]1` (stereo not shown) [Compound 35, 3-(1-Methyl-cyclopropyl)-[1,2,4]oxadiazole-5-carboxylic acid {2-[2-(1-isopropyl-3,5-dimethyl-1H-pyrazol-4-yl)-3H-imidazo[4,5-b]pyridin-7-yl]-6,7,8,9-tetrahydro-5H-benzocyclohepten-5-yl}-amide], for which the IC50 on full-length human BTK was below 1 nM; against Btk it was 1 to 10 nM.
